Measured values from patent publication US4239780A, “Phospholipase A2 inhibition” (The Upjohn Company, priority 1979, dated 1980).
Structures can show the parent of a compound that is named as a salt.

Tests used:
[1] = target: T1, HOG PANCREAS PHOSPHOLIPASE A2 (Sus scrofa, UniProt P00592); experiment: coupled phospholipase A2 / soybean lipoxygenase oxygen consumption assay, hog pancreas enzyme; format: biochemical; conditions: estimated I50 calculated from a partial inhibition value, pH 8.5, 37° C.
T1 construct: from tissue; host or cells: hog pancreas

[2] = target: T2, HUMAN PLATELET PHOSPHOLIPASE A2 (Homo sapiens, UniProt P47712); experiment: inhibition of collagen-induced aggregation of human platelets; format: cell-based; conditions: human platelet rich plasma, read-out: I50 collagen (converted)
T2 construct: Human blood was drawn from an antecubital vein into 3.8% sodium citrate; endogenous in cells; host or cells: human platelets in citrated plasma (PRP)
T2 sequence (P47712 1-749): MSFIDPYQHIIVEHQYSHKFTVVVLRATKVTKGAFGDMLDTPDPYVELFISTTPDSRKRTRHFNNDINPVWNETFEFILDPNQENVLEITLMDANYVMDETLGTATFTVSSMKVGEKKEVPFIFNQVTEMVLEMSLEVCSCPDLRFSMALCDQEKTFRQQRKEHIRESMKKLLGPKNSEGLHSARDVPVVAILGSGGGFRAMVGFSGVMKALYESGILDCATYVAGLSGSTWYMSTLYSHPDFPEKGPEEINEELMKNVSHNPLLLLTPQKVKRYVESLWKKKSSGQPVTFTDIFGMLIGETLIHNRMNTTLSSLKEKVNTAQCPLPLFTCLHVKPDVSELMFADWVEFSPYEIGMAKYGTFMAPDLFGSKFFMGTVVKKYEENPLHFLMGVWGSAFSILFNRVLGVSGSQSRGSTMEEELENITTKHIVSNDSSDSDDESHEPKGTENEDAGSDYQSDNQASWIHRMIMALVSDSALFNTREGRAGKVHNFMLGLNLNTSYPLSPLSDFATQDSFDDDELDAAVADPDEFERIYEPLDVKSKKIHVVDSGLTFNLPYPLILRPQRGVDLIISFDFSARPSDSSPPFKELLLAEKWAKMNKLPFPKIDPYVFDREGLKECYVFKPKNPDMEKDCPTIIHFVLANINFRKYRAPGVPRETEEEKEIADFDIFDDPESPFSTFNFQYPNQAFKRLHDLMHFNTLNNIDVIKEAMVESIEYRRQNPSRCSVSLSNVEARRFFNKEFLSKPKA
Method: The compounds of the present invention were tested for their ability to inhibit collagen-induced aggregation of platelets at 100 μg. per ml. or less. The compounds that were active against collagen-induced aggregation were tested at the I50 dose against arachidonic acid-induced aggregation. Compounds that inhibited collagen-induced aggregation, but not arachidonic acid-induced aggregation, were reported as active phospholipase A2 inhibitors.
The test was run as follows. Human blood was drawn from an antecubital vein into 3.8% sodium citrate with the final citrate concentration being 0.38%. The blood was transferred to plastic centrifuge tubes and centrifuged at 200×g for 10 min. This yielded […] (PRP). This PRP was allowed to stand for 30 min. for testing at which point it was tested against 400 μg. per ml. of arachidonic acid. […] If the platelets aggregated to arachidonic acid, a dose of collagen that gave a substantial irreversible aggregation (approximately 60-80% transmission) was established. It was then attempted to block the response of collagen with 10 μg. per ml. of indomethacin. […] The ID50 for all unknown compounds was then established. Most of the compounds were tested at rather high concentrations and it was often necessary to place the compound in ethanol into the aggregation cuvet and evaporate the ethanol before testing.
Those that were reported as active were tested at the ID50 dose against 400 μg per ml. of arachidonic acid. […] The compounds are shown to inhibit phospholipase A2 from humans at low dosages.

[3] = tested on: UV induced erythema; experiment: UV induced erythema on the skin of guinea pigs; format: in vivo, guinea pig; conditions: for erythema score, 1 hour / erythema score, 2 hours / erythema score, 3 hours / erythema score, 4 hours / erythema score, 24 hours: aggregate score for 3 animals; for erythema score, (After 4 hours) Total Points / erythema score, (After 24 hours) Total Points: aggregate for 3 animals
Method: Some of the compounds of this invention were tested in vivo for their ability to inhibit the effects of UV induced erythema on the skin of guinea pigs. This is an example of an inflammatory process fulfilling the four pathological requirements of "rubor, calor, dolor, and tumor" i.e., reddening, heat, pain, and edematious swelling in the skin. Administration of the compounds of this invention to guinea pigs whose skin was subsequently exposed to ultraviolet light markedly retarded and in some cases eliminated altogether this inflammatory process. Administration of the compounds of this invention was performed both interparenterally and subcutaneously with equivalent results, thereby eliminating any possiblity of reduction in erthyma due to the so called "counter irritant" effect on the serosal soft surface of the gut.
The test was carried out as follows: Guinea pigs of the Hartley strain ranging in weight from 250 to 750 gm. were clipped with coarse and fine clippers to remove as much hair as possible from the back or abdomen. They were then treated with a commercial depilatory for six to seven min. after which they were washed with warm water. The animals were then injected I.P. or subcutaneously with solutions or suspensions of the test compounds made up at 0.02 molar concentrations. The dose was 0.3 ml. per 100 gm. of body weight. A control (untreated) group was also maintained. The animals were then held for 30 min. before being exposed as rapidly as possible to ultra-violet light using a Kromayer lamp for 30 sec. A scoring system was developed to quantitate the erythema. The scoring was from 0 to 5 and is described as follows:
0=no apparent reddening of the skin
0.5=some slight reddening, without a definite border
1.0=a discrete pink circle with a definite border
2.0=a discrete circle of redness with a definite border more intense than 1.0
3.0=same circle with still greater intensity
4.0=same circle with a near maximal response but without any raising of the erythematous spot above the level of the surrounding skin
5.0=a raised edematous circle with the redness at maximal intensity
The animals were scored at hourly intervals for the first four hours. The erythema reached a maximum at this time in the control animals. The major difference between results at 4 hr. and those at 24 is the developement of edema and this occurred in some of the animals treated with phospholipase inhibitors without erythema being present. The results of this test are shown in tabular form in Tables VI and VII. The aggregate scores of the animals treated with the designated compounds are recorded at hourly intervals and compared with the control (untreated) scores. As shown by the tables, the method of this invention markedly retarded UV-induced erythema.

[4] = target: SNAKE VENOM PHOSPHOLIPASE A2; experiment: coupled phospholipase A2 / soybean lipoxygenase oxygen consumption assay, snake venom enzyme; format: biochemical; conditions: estimated I50 calculated from a partial inhibition value, pH 8.5, 37° C.
[5] = intraperitoneal, 23-25.2 mg/kg given 30 min. before UV, control 12
[6] = intraperitoneal, 23-25.2 mg/kg given 30 min. before UV, control 18
[7] = intraperitoneal, 23-25.2 mg/kg given 30 min. before UV, control 24
[8] = intraperitoneal, 23-25.2 mg/kg given 30 min. before UV, control 30
[9] = intraperitoneal, 23-25.2 mg/kg given 30 min. before UV, control 50
[10] = intraperitoneal, 23-25.2 mg/kg, control 78
[11] = intraperitoneal, 23-25.2 mg/kg, control 128
[12] = subcutaneous, 60.9-66.1 mg/kg given 30 min. before UV, control 17
[13] = subcutaneous, 60.9-66.1 mg/kg given 30 min. before UV, control 23
[14] = subcutaneous, 60.9-66.1 mg/kg given 30 min. before UV, control 29
[15] = subcutaneous, 60.9-66.1 mg/kg given 30 min. before UV, control 34
[16] = subcutaneous, 60.9-66.1 mg/kg given 30 min. before UV, control 56
[17] = subcutaneous, 60.9-66.1 mg/kg, control 103
[18] = subcutaneous, 60.9-66.1 mg/kg, control 158

T1 sequence (P00592 23-146): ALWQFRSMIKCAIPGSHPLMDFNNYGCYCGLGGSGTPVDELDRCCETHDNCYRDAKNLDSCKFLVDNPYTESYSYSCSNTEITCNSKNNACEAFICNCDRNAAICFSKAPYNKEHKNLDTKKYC

IC50 [1] | IC50 [2] | SMILES | erythema score, 1 hour [3, 5] | erythema score, 2 hours [3, 6] | erythema score, 3 hours [3, 7] | erythema score, 4 hours [3, 8] | erythema score, 24 hours [3, 9] | erythema score, (After 4 hours) Total Points [3, 10] | erythema score, (After 24 hours) Total Points [3, 11] | erythema score, 1 hour [3, 12] | erythema score, 2 hours [3, 13] | erythema score, 3 hours [3, 14] | erythema score, 4 hours [3, 15] | erythema score, 24 hours [3, 16] | erythema score, (After 4 hours) Total Points [3, 17] | erythema score, (After 24 hours) Total Points [3, 18] | IC50 [4]
5.1 µM |  | O=C(CCCN[C@H]1CC[C@H](c2ccc(C(F)(F)F)cc2)CC1)c1ccc(F)cc1 [A, Butyrophenone, 4'-fluoro-4-[[4-(α,α,α-trifluoro-p-tolyl)-cyclohexyl]amino]-, trans-,] |  |  |  |  |  |  |  |  |  |  |  |  |  |  | 
10.7 µM | 183 µM | CO[C@]1(c2ccccc2C)CC[C@H](NCCCC(=O)c2ccc(F)cc2)CC1 [B, Butyrophenone, 4'-fluoro-4-[(c-4-methoxy-4-o-tolylcyclohexyl)-amino]-, hydrochloride, hemihydrate] | 3 | 5 | 5 | 2 | 36 | 15 | 51 | 8 | 7 | 6 | 13 | 33 | 34 | 66 | 
14.9 µM | 261 µM | CO[C@]1(c2ccc(C)cc2)CC[C@H](NCCCC(=O)c2ccc(F)cc2)CC1 [D, Butyrophenone, 4'-fluoro-4-[(c-4-methoxy-4-p-tolyl-r-1-cyclohexyl)amino]-, hydrochloride] |  |  |  |  |  |  |  |  |  |  |  |  |  |  | 
29.8 µM |  | O=C(CCCN[C@H]1CC[C@](CO)(c2ccccc2)CC1)c1ccc(Cl)cc1 [E, Butyrophenone, 4'-chloro-4-[[c-4-(hydroxy-methyl)-4-phenyl-r-1-yclohexyl]amino]-, hydrochloride] |  |  |  |  |  |  |  |  |  |  |  |  |  |  | 
43.7 µM | 65.2 µM | CN(CCCC(=O)c1ccc(F)cc1)[C@H]1CC[C@](CO)(c2ccccc2)CC1 [F, Butyrophenone, 4'-fluoro-4-[[c-4-(hydroxy-methyl)-t-4-phenyl-r- -cyclohexyl]methyl-amino]-] | 14 | 12 | 12 | 17 | 60 | 55 | 105 |  |  |  |  |  |  |  | 
55.3 µM | 74.3 µM | O=C(CCCN[C@H]1CC[C@](CO)(c2ccc(Cl)cc2)CC1)c1ccc(F)cc1 [G, Butyrophenone, 4-[[t-4-(p-chlorophenyl)-c-4-(hydroxymethyl)-r-1-cyclo-hexyl]amino]-4'fluoro-, hydrochloride] |  |  |  |  |  |  |  | 12 | 13 | 9 | 13 | 52 | 46 | 98 | 
 |  | O=C(CCCNC1CCC(c2ccc(Cl)cc2)CC1)c1ccc(F)cc1 (stereo not drawn) [H, Butyrophenone, 4[[4-(p-chlorophenyl)cyclohexyl]-amino]-4'-fluoro-, hydro-chloride] |  |  |  |  |  |  |  | 6 | 6 | 7 | 9 | 52 | 28 | 78 | 

SMILES | IC50 [1] | IC50 [2] | erythema score, 1 hour [3, 5] | erythema score, 2 hours [3, 6] | erythema score, 3 hours [3, 7] | erythema score, 4 hours [3, 8] | erythema score, 24 hours [3, 9] | erythema score, (After 4 hours) Total Points [3, 10] | erythema score, (After 24 hours) Total Points [3, 11] | erythema score, 1 hour [3, 12] | erythema score, 2 hours [3, 13] | erythema score, 3 hours [3, 14] | erythema score, 4 hours [3, 15] | erythema score, 24 hours [3, 16] | erythema score, (After 4 hours) Total Points [3, 17] | erythema score, (After 24 hours) Total Points [3, 18] | IC50 [4]
O=C(CCCN[C@H]1CC[C@](CO)(c2ccccc2)CC1)c1ccc(F)cc1 [I, Butyropehnone, 4'-fluoro-4-[[4-(hydroxymethyl)-4-phenylcyclohexyl]amino]- cis-, hydrochloride] | 24.3 µM |  |  |  |  |  |  |  |  | 2 | 4 | 6 | 7 | 40 | 18 | 58 | 221 µM
